From the NIST ThermoML archive (doi:10.1021/acs.jced.9b00218)
Numbers after ± are expanded uncertainties. Values belong to the compound of their own block, whether it stands above or below them.

Experiments:
[1] = wn = mass fraction of the nth substance listed; settings: 298.15 K, 100 kPa, Liquid, Vibrating tube method
[2] = refractive index (Na D-line) (dimensionless); wn = mass fraction of the nth substance listed; settings: 298.15 K, 100 kPa, Liquid, Standard Abbe refractometry

mass density ([1]; w1 = 0.0336): 1035.63 ± 12 kg/m3
refractive index ([2]; w1 = 0.0336): 1.3448 ± 0.002
SMILES: O=B[O-].[Li+] [lithium metaborate] + O

mass density ([1]; w1 = 0.4388): 1539.08 ± 12 kg/m3
refractive index ([2]; w1 = 0.4388): 1.42543 ± 0.002
SMILES: O=B[O-].[K+] [potassium metaborate] + O

mass density ([1]; w1 = 0.2259): 1280.56 ± 12 kg/m3
refractive index ([2]; w1 = 0.2259): 1.38898 ± 0.002
SMILES: O=B[O-].[Na+] [sodium metaborate] + O
